Literature values as cited in patent US6200602A, “Composition for enhanced uptake of polar drugs from the colon” (priority 1995, dated 2001).

How the values were obtained:
[1] = oral / gastrointestinal tract
[2] = literature knowledge
[3] = absorption enhancer in the gastrointestinal tract
[4] = rat intestine; sodium caprate and sodium glycocholate as enhancers

Row | absorption when dosed orally [1] | Compound | further results
1 | poor or erratic absorption | O=P(O)(O)C(Cl)(Cl)P(=O)(O)O [clodronate] | 
2 | poor or erratic absorption | CNC(=C[N+](=O)[O-])NCCSCc1ccc(CN(C)C)o1 [ranitidine] | 
3 |  | CCCCCCCCCC(=O)[O-].[Na+] [sodium caprate] | absorption promoting effect [2]: can act as an absorption promoting agent
4 | poor or erratic absorption | O=C(O)c1cc(=O)c2c(OCC(O)COc3cccc4oc(C(=O)O)cc(=O)c34)cccc2o1 [sodium cromoglycate] | 
5 |  | C[C@H](CCC(=O)O)[C@H]1CC[C@H]2[C@@H]3CC[C@@H]4C[C@H](O)CC[C@]4(C)[C@H]3C[C@H](O)[C@]12C [sodium deoxycholate] | absorption promoting effect [2]: known to act as an absorption enhancer in the gastrointestinal tract; side effect and toxicity [3]: associated with potential side effect (diarrhoea) and toxicity
6 |  | insulin: polypeptide drug | preferred site for insulin absorption [4]: the ileum was the most preferred site for insulin absorption

Row | Compound | absorption when dosed orally [1] | further results
7 | C[C@H](CS)C(=O)N1CCC[C@H]1C(=O)O [captopril] | poor or erratic absorption | 
8 | CN/C(=N/CCSCc1nc[nH]c1C)NC#N [cimetidine] | poor or erratic absorption | 
